From patent publication US20240174662A1, “SMALL MOLECULE INHIBITORS OF SALT INDUCIBLE KINASES” (Janssen Biotech, Inc., priority 2021, published 2024) come the findings set out here.

The test has as its target SIK2 (Homo sapiens (Human), UniProt Q9H0K1). The test is described as follows: SIK2 Enzymatic Assay Version 2 (High ATP). To be noted: 3 mM ATP and 200 μM HDAC5tide final, ADP-Glo Max luminescence. The format is biochemical. The gist of the method: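 Luminescent ADP-Glo Max read-out: depletion reagent 2 h, then detection reagent 1 h. Before the reaction, compounds were incubated 30 min with enzyme added at 6 nM (twice final concentration), with all steps at room temperature.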

SIK2, sequence (Q9H0K1 whole entry, species assumed): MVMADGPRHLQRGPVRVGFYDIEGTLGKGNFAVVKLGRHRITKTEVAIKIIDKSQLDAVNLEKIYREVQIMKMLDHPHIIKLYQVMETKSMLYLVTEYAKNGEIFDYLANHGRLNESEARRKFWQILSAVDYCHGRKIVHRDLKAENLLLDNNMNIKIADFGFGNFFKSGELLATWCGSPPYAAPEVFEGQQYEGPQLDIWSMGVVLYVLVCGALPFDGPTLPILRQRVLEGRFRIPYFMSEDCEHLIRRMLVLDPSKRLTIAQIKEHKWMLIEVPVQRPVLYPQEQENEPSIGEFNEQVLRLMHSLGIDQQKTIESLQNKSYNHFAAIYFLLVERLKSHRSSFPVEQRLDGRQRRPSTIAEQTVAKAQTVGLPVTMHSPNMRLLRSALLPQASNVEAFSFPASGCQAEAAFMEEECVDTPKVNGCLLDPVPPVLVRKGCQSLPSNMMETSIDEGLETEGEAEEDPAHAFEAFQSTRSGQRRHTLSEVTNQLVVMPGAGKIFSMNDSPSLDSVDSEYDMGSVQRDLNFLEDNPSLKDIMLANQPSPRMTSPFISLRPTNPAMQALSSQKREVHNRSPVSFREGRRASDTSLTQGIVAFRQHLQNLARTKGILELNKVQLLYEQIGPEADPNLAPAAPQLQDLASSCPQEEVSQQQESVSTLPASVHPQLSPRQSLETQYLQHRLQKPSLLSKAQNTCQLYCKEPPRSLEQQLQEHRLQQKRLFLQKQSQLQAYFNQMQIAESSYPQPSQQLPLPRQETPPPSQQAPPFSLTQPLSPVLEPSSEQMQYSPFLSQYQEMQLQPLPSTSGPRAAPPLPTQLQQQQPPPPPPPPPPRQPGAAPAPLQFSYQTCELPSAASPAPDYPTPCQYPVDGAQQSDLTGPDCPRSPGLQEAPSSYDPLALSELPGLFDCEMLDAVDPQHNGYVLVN

`COc1nnc(Nc2cc3cc(-c4c(OC[C@H]5CCN5C)cnn4C)ccn3n2)cc1C` [Example 147, N-(6-methoxy-5-methyl-pyridazin-3-yl)-5-[2-methyl-4-[[(2R)-1-methylazetidin-2-yl]methoxy]pyrazol-3-yl]pyrazolo[1,5-a]pyridin-2-amine]: the IC50 (usually the concentration that inhibits the measured activity by half) came to 0.9 nM.

In the case of `CN1C[C@@H](C(F)(F)F)[C@@H]1COc1cnn(C)c1-c1ccn2nc(NC(=O)C3CC3)cc2c1` [Example 10, N-[5-[2-methyl-4-[[(2R,3R)-1-methyl-3-(trifluoromethyl)azetidin-2-yl]methoxy]pyrazol-3-yl]pyrazolo[1,5-a]pyridin-2-yl]cyclopropanecarboxamide], the IC50 was 988 nM. This IC50 is about 1100-fold higher than that of the compound before.

Turning to `CN1CC[C@H](Oc2cnn(C)c2-c2ccn3nc(Nc4cc(C(F)(F)F)ncn4)cc3c2)C1` [Example 459, 5-[2-methyl-4-[(3S)-1-methylpyrrolidin-3-yl]oxy-pyrazol-3-yl]-N-[6-(trifluoromethyl)pyrimidin-4-yl]pyrazolo[1,5-a]pyridin-2-amine], the IC50 was 145 nM.

`CN1CC(F)(F)C1COc1cnn(C)c1-c1ccn2nc(NC(=O)C3CC3)cc2c1` (racemic) [Example 60, rac-N-[5-[4-[(3,3-difluoro-1-methyl-azetidin-2-yl)methoxy]-2-methyl-pyrazol-3-yl]pyrazolo[1,5-a]pyridin-2-yl]cyclopropanecarboxamide] came in with a half-maximal inhibitory concentration (IC50) of 230 nM.

In the case of `Cc1cnc(Nc2cc3cc(-c4c(CO[C@@H]5CN(C)C[C@H]5C)cnn4C)ccn3n2)cn1` (stereo in doubt) [Example 377, CIS—*R, *R-5-[4-[(1,4-dimethylpyrrolidin-3-yl)oxymethyl]-2-methyl-pyrazol-3-yl]-N-(5-methylpyrazin-2-yl)pyrazolo[1,5-a]pyridin-2-amine], inhibition was half-maximal at 14.8 nM (IC50). Compared with the last compound, the IC50 is about 16-fold lower.

`Cc1onc(OC[C@H]2CCN2C)c1-c1ccc2nc(NC(=O)C3CC3)cn2c1` [Example 329, N-[6-[5-methyl-3-[[(2R)-1-methylazetidin-2-yl]methoxy]isoxazol-4-yl]imidazo[1,2-a]pyridin-2-yl]cyclopropanecarboxamide] showed an IC50 of 35 nM.

`Cc1cc(Nc2cc3cc(-c4c(CO[C@@H]5CN(C)C[C@@H]5C)cnn4C)ccn3n2)nc(C)n1` (stereo in doubt) [Example 369, CIS—*S, *S—N-(2,6-dimethylpyrimidin-4-yl)-5-[4-[(1,4-dimethylpyrrolidin-3-yl)oxymethyl]-2-methyl-pyrazol-3-yl]pyrazolo[1,5-a]pyridin-2-amine] yielded an IC50 of 2 nM.

`Cc1cc(Nc2cc3cc(-c4c(O[C@H]5CCN(C)C5)cnn4C)ccn3n2)nc(C)n1` [Example 267, N-(2,6-dimethylpyrimidin-4-yl)-5-[2-methyl-4-[(3S)-1-methylpyrrolidin-3-yl]oxy-pyrazol-3-yl]pyrazolo[1,5-a]pyridin-2-amine] yielded an IC50 of 29.8 nM.

`CN1CCC[C@@H]1COc1cnn(C)c1-c1ccn2nc(NC(=O)C3CC3)cc2c1` [Example 239, N-[5-[2-methyl-4-[[(2R)-1-methylpyrrolidin-2-yl]methoxy]pyrazol-3-yl]pyrazolo[1,5-a]pyridin-2-yl]cyclopropanecarboxamide]: half-maximal inhibition (IC50) required 22.7 nM.

As to `Cc1cc(Nc2cc3cc(-c4c(OC[C@H]5COC6(CCCC6)O5)cnn4C)ccn3n2)nc(C)n1` (single isomer, unassigned) [Example 299, (*S)—N-(2,6-dimethylpyrimidin-4-yl)-5-[4-(6,9-dioxaspiro[4.4]nonan-8-ylmethoxy)-2-methyl-pyrazol-3-yl]pyrazolo[1,5-a]pyridin-2-amine], half-maximal inhibition (IC50) required 31.1 nM.

With `[2H]C([2H])([2H])C([2H])([2H])N1CCC[C@@H]1COc1cnn(C)c1-c1ccn2nc(Nc3cc(C)nc(C)n3)cc2c1` [Example 293, N-(2,6-dimethylpyrimidin-4-yl)-5-[2-methyl-4-[[(2R)-1-(1,1,2,2,2-pentadeuterioethyl)pyrrolidin-2-yl]methoxy]pyrazol-3-yl]pyrazolo[1,5-a]pyridin-2-amine], the IC50 is < 0.847 nM.

The compound `CN1CC[C@@H]1COc1cnn(C)c1-c1ccn2nc(Nc3ccnc(C(F)(F)F)n3)cc2c1` [Example 118, 5-[2-methyl-4-[[(2R)-1-methylazetidin-2-yl]methoxy]pyrazol-3-yl]-N-[2-(trifluoromethyl)pyrimidin-4-yl]pyrazolo[1,5-a]pyridin-2-amine] displayed an IC50 of 1.9 nM.

Consider `CO[C@H]1CNC[C@@H]1COc1cnn(C)c1-c1ccn2nc(NC(=O)C3CC3)cc2c1` [Example 351, N-[5-[4-[[(3R,4R)-4-methoxypyrrolidin-3-yl]methoxy]-2-methyl-pyrazol-3-yl]pyrazolo[1,5-a]pyridin-2-yl]cyclopropanecarboxamide], for which the IC50 is 52.6 nM. Compared with the last compound, the IC50 is about 28-fold higher.

Turning to `CN1C[C@H](F)[C@H](Oc2cnn(C)c2-c2ccn3nc(NC(=O)C4CC4)cc3c2)C1` [Example 415, N-[5-[4-[(3R,4S)-4-fluoro-1-methyl-pyrrolidin-3-yl]oxy-2-methyl-pyrazol-3-yl]pyrazolo[1,5-a]pyridin-2-yl]cyclopropanecarboxamide], the IC50 was 124 nM. This IC50 lies about 2.4-fold higher than the previous one.

As for `Cc1onc(OC2CCN(C)CC2)c1-c1ccn2nc(NC(=O)C3CC3)cc2c1` [Example 493, N-[5-[5-methyl-3-[(1-methyl-4-piperidyl)oxy]isoxazol-4-yl]pyrazolo[1,5-a]pyridin-2-yl]cyclopropanecarboxamide], the IC50 came out at 236 nM.

For the compound `Cc1cc(Nc2cc3cc(-c4c(OC[C@H]5C[C@H](C)CN5)cnn4C)ccn3n2)nc(C)n1` [Example 446, N-(2,6-dimethylpyrimidin-4-yl)-5-[2-methyl-4-[[(2R,4S)-4-methylpyrrolidin-2-yl]methoxy]pyrazol-3-yl]pyrazolo[1,5-a]pyridin-2-amine], inhibition was half-maximal at 111 nM (IC50).

Turning to `Cc1cc(Nc2cc3cc(-c4c(OC[C@H]5CCN5C)cnn4C)ccn3n2)nc2c1CCC2` [Example 136, N-(4-methyl-6,7-dihydro-5H-cyclopenta[b]pyridin-2-yl)-5-[2-methyl-4-[[(2R)-1-methylazetidin-2-yl]methoxy]pyrazol-3-yl]pyrazolo[1,5-a]pyridin-2-amine], half-maximal inhibition (IC50) was put at 2.3 nM.

As for `Cc1onc(OC2CCNCC2)c1-c1ccn2nc(NC(=O)C3CC3)cc2c1` [Example 316, N-[5-[5-methyl-3-(4-piperidyloxy)isoxazol-4-yl]pyrazolo[1,5-a]pyridin-2-yl]cyclopropanecarboxamide], 50.3 nM corresponded to half-maximal inhibition (IC50).

Take `Cc1cn2nc(Nc3cc4cc(-c5c(OC[C@H]6CCN6C)cnn5C)ccn4n3)ccc2n1` [Example 148, 2-methyl-N-[5-[2-methyl-4-[[(2R)-1-methylazetidin-2-yl]methoxy]pyrazol-3-yl]pyrazolo[1,5-a]pyridin-2-yl]imidazo[1,2-b]pyridazin-6-amine]: the IC50 was < 0.847 nM.

With `Cn1ncc(OC[C@@H]2CNC[C@H]2O)c1-c1ccn2nc(NC(=O)C3CC3)cc2c1` [Example 416, N-[5-[4-[[(3S,4S)-4-hydroxypyrrolidin-3-yl]methoxy]-2-methyl-pyrazol-3-yl]pyrazolo[1,5-a]pyridin-2-yl]cyclopropanecarboxamide], inhibition was half-maximal at 73.6 nM (IC50).

Take `Cc1onc(OC[C@@H]2CCCN2C)c1-c1ccn2nc(NC(=O)C3CC3)cc2c1` [Example 500, N-[5-[5-methyl-3-[[(2S)-1-methylpyrrolidin-2-yl]methoxy]isoxazol-4-yl]pyrazolo[1,5-a]pyridin-2-yl]cyclopropanecarboxamide]: 431 nM corresponded to half-maximal inhibition (IC50). This IC50 lies about 5.9-fold higher than the previous one.

For `CN1C[C@H](c2ccccc2)C[C@@H]1COc1cnn(C)c1-c1ccn2nc(NC(=O)C3CC3)cc2c1` [Example 257, N-[5-[2-methyl-4-[[(2R,4S)-1-methyl-4-phenyl-pyrrolidin-2-yl]methoxy]pyrazol-3-yl]pyrazolo[1,5-a]pyridin-2-yl]cyclopropanecarboxamide], the IC50 is 23.5 nM.

As for `CCN1CCC[C@@H]1COc1cnn(C)c1-c1ccn2nc(NC(=O)C3CC3)cc2c1` [Example 427, N-[5-[4-[[(2R)-1-ethylpyrrolidin-2-yl]methoxy]-2-methyl-pyrazol-3-yl]pyrazolo[1,5-a]pyridin-2-yl]cyclopropanecarboxamide], half-maximal inhibition (IC50) was put at 73.5 nM.

The compound `CN1CC[C@@H](COc2cnn(CC3CC3)c2-c2ccn3nc(NC(=O)C4CC4)cc3c2)C1` [Example 489, N-[5-[2-(cyclopropylmethyl)-4-[[(3R)-1-methylpyrrolidin-3-yl]methoxy]pyrazol-3-yl]pyrazolo[1,5-a]pyridin-2-yl]cyclopropanecarboxamide] had an IC50 of 13600 nM.

On to `C[C@H](O)CN1CC[C@@H]1COc1cnn(C)c1-c1ccn2nc(NC(=O)C3CC3)cc2c1` [Example 253, N-[5-[4-[[(2R)-1-[(2S)-2-hydroxypropyl]azetidin-2-yl]methoxy]-2-methyl-pyrazol-3-yl]pyrazolo[1,5-a]pyridin-2-yl]cyclopropanecarboxamide], for which the IC50 stood at 2.4 nM. This IC50 lies about 5700-fold lower than the previous one.

With `CN1CC[C@@H]1COc1cnn(C)c1-c1ccn2nc(NC(=O)[C@H]3C[C@@H]3c3ccccc3)cc2c1` (racemic) [Example 71, trans-N-[5-[2-methyl-4-[((2R)-1-methylazetidin-2-yl)methoxy]pyrazol-3-yl]pyrazolo[1,5-a]pyridin-2-yl]-2-phenyl-cyclopropanecarboxamide], the IC50 is 22.3 nM.

The compound `Cc1cc(Nc2cc3cc(-c4c(O[C@@H]5CCN(C)[C@H]5C)cnn4C)ccn3n2)nc(C)n1` [Example 354, N-(2,6-dimethylpyrimidin-4-yl)-5-[4-[(2S,3R)-1,2-dimethylpyrrolidin-3-yl]oxy-2-methyl-pyrazol-3-yl]pyrazolo[1,5-a]pyridin-2-amine] displayed an IC50 of 67.3 nM.

In the case of `Cn1ncc(OC[C@H]2CCN2Cc2ccccc2)c1-c1ccn2nc(NC(=O)C3CC3)cc2c1` [Example 429, N-[5-[4-[[(2R)-1-benzylazetidin-2-yl]methoxy]-2-methyl-pyrazol-3-yl]pyrazolo[1,5-a]pyridin-2-yl]cyclopropanecarboxamide], the IC50 is 99.9 nM.

As to `COC1(COc2noc(C)c2-c2ccn3nc(NC(=O)C4CC4)cc3c2)CCNCC1` [Example 206, N-[5-[3-[(4-methoxy-4-piperidyl)methoxy]-5-methyl-isoxazol-4-yl]pyrazolo[1,5-a]pyridin-2-yl]cyclopropanecarboxamide], half-maximal inhibition (IC50) was put at 35 nM.
